Measurements: ChEMBL document CHEMBL5113415, “Synthesis of 10,10'-bis(trifluoromethyl) marinopyrrole A derivatives and evaluation of their antiviral activities in vitro” (Eur J Med Chem, 2022)

What was measured:
[1] = system: Japanese encephalitis virus; experiment: Antiviral activity against JEV-SA14 infected in […] incubated for 7 days by CellTiter 96 luminescent cell viability assay; type: functional, organism-based; conditions: 168 h
Yellow fever virus = experiment: Antiviral activity against YFV-17D infected in […] incubated for 7 days by CellTiter 96 luminescent cell viability assay; type: functional, organism-based; conditions: 168 h
[2] = Cytotoxicity against […] infected with JEV-SA14 incubated for 7 days by CellTiter 96 luminescent cell viability assay; type: toxicity, cell-based; conditions: time 7 day
[3] = Cytotoxicity against […] infected with YFV-17D incubated for 7 days by CellTiter 96 luminescent cell viability assay; type: toxicity, cell-based; conditions: time 7 day
Coxsackievirus = experiment: Antiviral activity against CA6 infected in human RD cells incubated for 3 days by CellTiter 96 luminescent cell viability assay; type: functional, organism-based; conditions: A6, RD, 72 h
Coxsackievirus A16 = experiment: Antiviral activity against CA16 infected in human RD cells incubated for 3 days by CellTiter 96 luminescent cell viability assay; type: functional, organism-based; conditions: Enterovirus A, 72 h
[4] = Cytotoxicity against human RD cells infected with CA6 incubated for 3 days by CellTiter 96 luminescent cell viability assay; type: toxicity, cell-based; conditions: time 3 day
[5] = Cytotoxicity against human RD cells infected with CA16 incubated for 3 days by CellTiter 96 luminescent cell viability assay; type: toxicity, cell-based; conditions: time 3 day
[6] = Selectivity index, ratio of CC50 for […] to IC50 for JEV-SA14 infected in […]; type: toxicity, cell-based; conditions: read-out: Ratio CC50/IC50
[7] = Selectivity index, ratio of CC50 for […] to IC50 for YFV-17D infected in […]; type: toxicity, cell-based; conditions: read-out: Ratio CC50/IC50
[8] = Selectivity index, ratio of CC50 for human RD cells to IC50 for CA6 infected in human RD cells; type: toxicity, cell-based; conditions: read-out: Ratio CC50/IC50
[9] = Selectivity index, ratio of CC50 for human RD cells to IC50 for CA16 infected in human RD cells; type: toxicity, cell-based; conditions: read-out: Ratio CC50/IC50
Dengue virus = experiment: Antiviral activity against DENV-NGC-1 infected in […] incubated for 7 days by CellTiter 96 luminescent cell viability assay; type: functional, organism-based; conditions: NGC-1, BHK, 168 h
Zika virus = experiment: Antiviral activity against ZIKV-SMGC-1 infected in […] incubated for 7 days by CellTiter 96 luminescent cell viability assay; type: functional, organism-based; conditions: SMGC-1, BHK, 168 h
[10] = Cytotoxicity against […] infected with ZIKV-SMGC-1 incubated for 7 days by CellTiter 96 luminescent cell viability assay; type: toxicity, cell-based; conditions: time 7 day
[11] = Cytotoxicity against […] infected with DENV-NGC-1 incubated for 7 days by CellTiter 96 luminescent cell viability assay; type: toxicity, cell-based; conditions: time 7 day
[12] = Selectivity index, ratio of CC50 for […] to IC50 for ZIKV-SMGC-1 infected in […]; type: toxicity, cell-based; conditions: read-out: Ratio CC50/IC50
[13] = Selectivity index, ratio of CC50 for […] to IC50 for DENV-NGC infected in […]; type: toxicity, cell-based; conditions: read-out: Ratio CC50/IC50
Enterovirus A71 = experiment: Antiviral activity against EV71 infected in human RD cells incubated for 3 days by CellTiter 96 luminescent cell viability assay; type: functional, organism-based; conditions: Enterovirus A, 71, RD, 72 h
[14] = Cytotoxicity against human RD cells infected with EV71 incubated for 3 days by CellTiter 96 luminescent cell viability assay; type: toxicity, cell-based; conditions: time 3 day
[15] = Selectivity index, ratio of CC50 for human RD cells to IC50 for EV71 infected in human RD cells; type: toxicity, cell-based; conditions: read-out: Ratio CC50/IC50

| SMILES | IC50 [1] [nM] | IC50 (Yellow fever virus) [nM] | CC50 at 168 h [2] [nM] | CC50 at 168 h [3] [nM] | IC50 (Coxsackievirus A16) [nM] | CC50 at 72 h [5] [nM] | selectivity ratio [6] | selectivity ratio [7] | selectivity ratio [9] | IC50 (Dengue virus) [nM] | IC50 (Zika virus) [nM] | CC50 at 168 h [10] [nM] | CC50 at 168 h [11] [nM] | selectivity ratio [12] | selectivity ratio [13] | IC50 (Enterovirus A71) [nM] | CC50 at 72 h [14] [nM] | selectivity ratio [15] | further results |
| --- | --- | --- | --- | --- | --- | --- | --- | --- | --- | --- | --- | --- | --- | --- | --- | --- | --- | --- | --- |
| O=C(c1ccc(C(F)(F)F)cc1O)c1[nH]c(Cl)c(Cl)c1-n1c(C(=O)c2ccc(C(F)(F)F)cc2O)cc(Cl)c1Sc1ccccn1 | 210 | 50 | 230 | 230 | 10 | 230 | 1.1 | 4.6 | 22.8 | – | – | – | – | – | – | – | – | – | IC50 (Coxsackievirus): 190 nM; CC50 at 72 h [4]: 230 nM; selectivity ratio [8]: 1.2 |
| O=C(c1ccc(C(F)(F)F)cc1O)c1[nH]c(Cl)c(Cl)c1-n1c(C(=O)c2ccc(C(F)(F)F)cc2O)cc(Cl)c1Sc1nc2ccccc2[nH]1 | – | 23200 | – | 30800 | 9130 | 45600 | – | 1.33 | 5 | 21600 | 14500 | 110 | 25300 | 1.75 | 1.17 | – | – | – | – |
| O=C(c1ccc(C(F)(F)F)cc1O)c1[nH]c(Cl)c(Cl)c1-n1c(C(=O)c2ccc(C(F)(F)F)cc2O)cc(Cl)c1Sc1nnnn1CCO | – | 8310 | – | 12200 | 2510 | 15300 | – | 1.47 | 6.1 | – | 6410 | 8010 | – | 1.25 | – | 4770 | 10800 | 2.27 | – |
| O=C(c1ccc(C(F)(F)F)cc1O)c1[nH]c(Cl)c(Cl)c1-n1c(C(=O)c2ccc(C(F)(F)F)cc2O)cc(Cl)c1Cl | > 200000 | > 200000 | – | – | 10 | 250 | – | – | 24.6 | > 300 | > 300 | – | – | – | – | 60 | 120 | 1.96 | – |
| O=C(c1ccc(C(F)(F)F)cc1O)c1[nH]c(Cl)c(Cl)c1-n1c(C(=O)c2ccc(C(F)(F)F)cc2O)cc(Cl)c1Sc1nc2ccccc2s1 | 700 | 820 | 1180 | 1170 | 130 | 1460 | 1.68 | 1.43 | 11.3 | 1040 | 910 | 17100 | 110 | 0.12 | 0.11 | – | – | – | – |
| O=C(c1ccc(C(F)(F)F)cc1O)c1[nH]c(Cl)c(Cl)c1-n1c(C(=O)c2ccc(C(F)(F)F)cc2O)cc(Cl)c1Sc1ncc[nH]1 | 1260 | 1280 | 3750 | 3750 | – | – | 2.98 | 2.93 | – | 1150 | 970 | 3750 | 3750 | 3.87 | 3.26 | – | – | – | – |
| O=C(c1ccc(C(F)(F)F)cc1O)c1[nH]c(Cl)c(Cl)c1-n1c(C(=O)c2ccc(C(F)(F)F)cc2O)cc(Cl)c1SCCCO | 230 | 200 | 1420 | 1420 | – | – | 6.17 | 7.1 | – | 230 | 100 | – | 1420 | 14.2 | 6.17 | – | – | – | IC50 (Coxsackievirus): 260 nM; CC50 at 72 h [4]: 1040 nM; selectivity ratio [8]: 4 |
| O=C(c1ccc(C(F)(F)F)cc1O)c1[nH]c(Cl)c(Cl)c1-n1c(C(=O)c2ccc(C(F)(F)F)cc2O)cc(Cl)c1SCCO | 680 | 600 | 1450 | 1450 | – | – | 2.13 | 2.41 | – | 150 | 70 | 1420 | 500 | 7.13 | 3.34 | 550 | 1570 | 2.85 | – |
| Cc1nnc(Sc2c(Cl)cc(C(=O)c3ccc(C(F)(F)F)cc3O)n2-c2c(C(=O)c3ccc(C(F)(F)F)cc3O)[nH]c(Cl)c2Cl)s1 | 930 | 850 | 1720 | 1720 | 280 | 2640 | 1.85 | 2.02 | 9.43 | 760 | 780 | 440 | 440 | 0.57 | 0.58 | – | – | – | – |
| CN(C)CCn1nnnc1Sc1c(Cl)cc(C(=O)c2ccc(C(F)(F)F)cc2O)n1-c1c(C(=O)c2ccc(C(F)(F)F)cc2O)[nH]c(Cl)c1Cl | 2110 | 1970 | 4140 | 4140 | – | – | 1.96 | 2.1 | – | 1870 | 1690 | 2820 | 2820 | 1.67 | 1.51 | 2470 | 3170 | 1.28 | – |
| O=C(c1ccc(C(F)(F)F)cc1O)c1[nH]c(Cl)c(Cl)c1-n1c(C(=O)c2ccc(C(F)(F)F)cc2O)cc(Cl)c1SCCc1ccccn1 | 620 | 570 | 610 | 610 | 20 | 350 | 0.98 | 1.07 | 17.5 | – | 150 | 25400 | – | 4.07 | – | 50 | 270 | 5.4 | – |
| O=C(c1ccc(C(F)(F)F)cc1O)c1[nH]c(Cl)c(Cl)c1-n1c(C(=O)c2ccc(C(F)(F)F)cc2O)cc(Cl)c1SCc1cccnc1 | – | – | – | – | 100 | 860 | – | – | 8.61 | 240 | 280 | – | 320 | 1.14 | 1.33 | 270 | 570 | 2.1 | – |
| O=C(c1ccc(C(F)(F)F)cc1O)c1[nH]c(Cl)c(Cl)c1-n1c(C(=O)c2ccc(C(F)(F)F)cc2O)cc(Cl)c1SCc1ncccn1 | – | – | – | – | 80 | 830 | – | – | 10.4 | – | – | 610 | – | – | – | 200 | 560 | 2.78 | – |
| O=C(c1ccc(C(F)(F)F)cc1O)c1[nH]c(Cl)c(Cl)c1-n1c(C(=O)c2ccc(C(F)(F)F)cc2O)cc(Cl)c1Sc1nc2cccnc2[nH]1 | 24400 | 19700 | 19200 | 19300 | 5900 | 19900 | 0.79 | 0.98 | 3.37 | 22800 | 31400 | 1800 | 17100 | 0.54 | 0.75 | – | – | – | – |
| O=C(c1ccc(C(F)(F)F)cc1O)c1[nH]c(Cl)c(Cl)c1-n1c(C(=O)c2ccc(C(F)(F)F)cc2O)cc(Cl)c1Sc1nc[nH]n1 | 29400 | 24300 | 18700 | 18600 | – | – | 0.64 | 0.77 | – | – | 5670 | 13800 | – | 2.44 | – | – | – | – | – |
| O=C(c1ccc(C(F)(F)F)cc1O)c1[nH]c(Cl)c(Cl)c1-n1c(C(=O)c2ccc(C(F)(F)F)cc2O)cc(Cl)c1Sc1cnccn1 | 600 | 840 | 1210 | 1220 | 180 | 11000 | 2.02 | 1.45 | 60.9 | 290 | 250 | 1460 | 1460 | 5.85 | 5.03 | – | – | – | – |
| O=C(c1ccc(C(F)(F)F)cc1O)c1[nH]c(Cl)c(Cl)c1-n1c(C(=O)c2ccc(C(F)(F)F)cc2O)cc(Cl)c1Sc1cccc[n+]1[O-] | – | 3130 | – | 8060 | 1070 | 8510 | – | 2.58 | 7.95 | 3680 | – | – | 8060 | – | 2.19 | – | – | – | – |
| [N-]=[N+]=NCCCSc1c(Cl)cc(C(=O)c2ccc(C(F)(F)F)cc2O)n1-c1c(C(=O)c2ccc(C(F)(F)F)cc2O)[nH]c(Cl)c1Cl | 90 | – | 310 | – | – | – | 3.44 | – | – | – | 90 | 500 | – | – | – | – | – | – | – |
